Patent US8367659B2, “Oxazinyl isoflavonoid compounds, medicaments and use” (Marshall Edwards, Inc., priority 2007, dated 2013)
Entries after “also recorded” stand apart in the source; their conditions may differ. Like-named read-outs stand apart in the source and are kept apart here.

Experiments:
[1] = target: T1, GAL4-PPARγ fusion protein (Homo sapiens, UniProt P37231); assay: PPARγ activity in transfected HEK293 cells (beta-lactamase reporter); assay type: cell-based; details: FIG. 13: 1 μM
T1 construct: host or cells: HEK293 (human embryonic kidney), stably transfected
Outline: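 HEK293 cells stably expressing GAL4-DBD/PPARγ-LBD fusion with beta-lactamase reporter, treated with compound at 1, 5 and 10 μM for 16-18 h. Beta-lactamase read via FRET substrate (2 h, room temperature), ex 409 nm, em 460/530 nm; background-subtracted emission ratio.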

[2] = Free radical scavenging with DPPH; details: for EC50: DPPH, read-out: Free radical scavenging ability EC50
Outline: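 Compounds reacted with DPPH in ethanol for 20 min, screened at 100 μM, and absorbance at 517 nm compared with a DPPH-ethanol blank. IC50 was taken as the concentration giving a 0.6 absorbance change, with 1.2 units representing total scavenging.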

[3] = system: IL-6; assay: IL-6 synthesis by mouse splenocytes (ELISA); assay type: cell-based, Skh-1:HR 1 (hairless) mice; details: 10 μM; 3 days
Procedure: Male Skh-1:HR 1 (hairless) mice, approximately six weeks old were killed by cervical dislocation. Single cell suspensions were made from the spleen and erythrocytes were lysed in buffer (0.14 M NH4Cl, 17 mM Tris, pH 7.2). The remaining splenocytes were cultured in RPMI-1640 (Gibco) supplemented with 10% (v:v) FBS, 200 mM L-glutamine, penicillin/streptomycin and […] 2-mercaptoethanol. Splenocytes were added to quadruplicate wells containing either concanavalin A (ConA, Sigma-Aldrich—0.4 μg/well), LPS (Sigma-Aldrich—1 μg/well) or no mitogen, as well 10 μM of test compound in DMSO. Samples were analysed after 3 days incubation at 37° C. in 5% CO2 in air. Methylthiazoletetrazolium (MTT) is bioreduced by viable cells into a coloured formazan product that is soluble in DMSO. Thus the quantity of formazan product is directly proportional to the number of living cells in culture, and can be measured using a spectrophotometer at 570 nm. MTT was added to each well, incubated for a further 4 hrs and then colour developed with 0.04 N HCl in isopropanol. Culture supernatants were stored after collection at −80° C. and analysed by ELISA (BD Biosciences) for IFN-γ (a Th-1 cytokine) and for T cells alone, IL-6 (a Th-2 cytokine).

[4] = system: VCAM; assay: TNFα-induced VCAM expression in human arterial endothelial cells (ELISA); assay type: cell-based; details: HAEC; 10 μM found most appropriate for comparing
Procedure: Inhibition of TNFα-stimulated endothelial cell activation by compounds was assessed by measuring surface expression of cell adhesion molecules with an ELISA method. Human arterial endothelial cells (HAEC) in growth medium (Cell Applications Inc.) were seeded into 96-well plates at a density of 10,000 cells per well. Plates were incubated overnight at 37° C. in a humidified incubator to allow for cells to become confluent. On the morning of the experiment, TNFα (10 μl, 2 ng/ml) was added to each well, which contained 100 μl of medium. Compounds were diluted in DMSO-containing medium (2.5% DMSO) to give a compound concentration of 100 and 300 μM. Compounds were added to wells so that final concentrations were 10 and 30 μM. DMSO-containing medium alone was added to zero concentration control wells. All samples were measured in quadruplicate (4 wells per treatment).
After incubation with compound, medium was removed and cells were probed with either non-specific IgG or specific mouse antibodies against E-selectin, ICAM or VCAM (BD Biosciences—0.1 μg in 100 μL buffered saline with 10% heat-inactivated human serum). Adhesion molecule expression was detected by addition of sheep anti-mouse antibody/horseradish peroxidase conjugate. […] Optical density was measured at 405 nm with an ELISA reader (Titertek Multiscan, Flow Laboratories). […]

T1 sequence (P37231 238-503 limits assumed): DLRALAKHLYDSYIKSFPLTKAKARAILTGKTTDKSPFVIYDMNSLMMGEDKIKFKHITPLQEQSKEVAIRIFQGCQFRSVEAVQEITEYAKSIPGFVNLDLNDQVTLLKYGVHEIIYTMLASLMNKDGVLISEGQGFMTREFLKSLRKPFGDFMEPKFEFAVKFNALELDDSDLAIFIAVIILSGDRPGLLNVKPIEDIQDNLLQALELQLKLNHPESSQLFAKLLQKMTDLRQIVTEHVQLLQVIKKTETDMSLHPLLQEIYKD
T1 sequence (P04386 1-147 partner limits assumed): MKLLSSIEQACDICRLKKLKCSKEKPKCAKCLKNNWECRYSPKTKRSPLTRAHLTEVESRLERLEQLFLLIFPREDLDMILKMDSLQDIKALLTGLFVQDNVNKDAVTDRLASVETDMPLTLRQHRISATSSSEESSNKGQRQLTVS

Row | SMILES | PPARγ activation, increase in beta-lactamase activity over media only control [1] | EC50 ([2]; 20 minutes, absorbance 517 nm, Table 4) [µM] | synthesis of IL-6 into the supernatant [3] | effect on TNFα-induced VCAM expression [4] | free radical scavenging / antioxidant activity in DPPH screen ([2]; 100 μM, ΔAbs>0.3 criterion) | EC50 ([2]; comparative, Table 13) [µM]
1 | CC(c1ccccc1)N1COc2cc3c(cc2C1)C=C(c1ccc(O)cc1)CO3 (stereo not drawn) [Compound 2, 4-(3-(1-Phenylethyl)-2,3,4,8-tetrahydrochromeno[6,7-e][1,3]oxazin-7-yl)phenol] | PPARγ agonist activity | 21.4 | concomitant reduction |  |  | 
2 | Oc1cccc(C2=Cc3ccc(O)cc3OC2)c1 [Compound 37-DHE, 3′,7-dihydroxy-isoflav-3-ene, reference compound] |  |  |  | less pronounced | free radical scavenging activity; also recorded: potent free radical scavenging ability | 55
